ChEMBL document CHEMBL4814041, “Anti-fibrotic effects of brevilin A in hepatic fibrosis via inhibiting the STAT3 signaling pathway” (Bioorg Med Chem Lett, 2021)
≈ marks a conversion by molar mass, not a printed value. Calls of active or inactive are those of the source. No cut-off for these calls is given here.

What was measured:
[1] = target: Signal transducer and activator of transcription 3 (Homo sapiens) (UniProt P40763); experiment: Inhibition of STAT3 in human LX2 cells assessed as reduction in TGF-1beta-induced STAT3 phosphorylation at 0.25 to 1 ug/ml by Western blot analysis; type: cell-based; conditions: dose 0.25-1 µg/ml
Sequence of Signal transducer and activator of transcription 3 (Homo sapiens) (P40763 whole entry): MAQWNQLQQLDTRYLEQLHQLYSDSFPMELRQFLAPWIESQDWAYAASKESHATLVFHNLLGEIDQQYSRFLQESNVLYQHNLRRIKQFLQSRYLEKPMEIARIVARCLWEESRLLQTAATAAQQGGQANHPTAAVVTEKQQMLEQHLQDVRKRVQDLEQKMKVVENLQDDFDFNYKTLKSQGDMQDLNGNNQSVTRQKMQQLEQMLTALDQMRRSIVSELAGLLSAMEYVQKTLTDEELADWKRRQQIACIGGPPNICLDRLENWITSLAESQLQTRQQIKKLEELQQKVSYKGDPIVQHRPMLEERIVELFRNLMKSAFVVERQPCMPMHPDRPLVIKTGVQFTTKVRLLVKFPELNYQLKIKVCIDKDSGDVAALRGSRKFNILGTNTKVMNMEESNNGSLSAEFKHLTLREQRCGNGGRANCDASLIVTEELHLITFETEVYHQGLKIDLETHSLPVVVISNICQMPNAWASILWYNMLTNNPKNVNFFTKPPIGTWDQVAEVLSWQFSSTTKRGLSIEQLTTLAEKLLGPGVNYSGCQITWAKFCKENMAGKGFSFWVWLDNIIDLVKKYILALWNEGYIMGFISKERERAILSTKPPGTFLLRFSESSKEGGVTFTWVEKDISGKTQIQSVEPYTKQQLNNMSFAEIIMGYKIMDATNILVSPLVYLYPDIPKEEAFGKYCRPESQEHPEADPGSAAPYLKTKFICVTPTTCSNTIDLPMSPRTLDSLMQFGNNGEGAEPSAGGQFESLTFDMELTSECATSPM

LX-2 [2] = experiment: Anti-fibrotic activity against human LX2 cells assessed as reduction in TGF-1beta-induced fibronectin mRNA expression at 0.25 to 1 ug/ml by qPCR analysis; type: functional, cell-based; conditions: dose 0.25-1 µg/ml
Influenza A virus = experiment: Antiviral activity against influenza A virus infected in MDCK cells assessed as reduction in plaque number measured after 48 to 72 hrs; type: functional, organism-based
LX-2 [3] = experiment: Anti-fibrotic activity against human LX2 cells assessed as reduction in TGF-1beta-induced alpha-SMA mRNA expression at 0.25 to 1 ug/ml by qPCR analysis; type: functional, cell-based; conditions: dose 0.25-1 µg/ml
[4] = target: Signal transducer and activator of transcription 3 (Homo sapiens) (UniProt P40763); experiment: Inhibition of STAT3 in human LX2 cells assessed as reduction in TGF-1beta-induced CTGF expression at 0.25 to 1 ug/ml by Western blot analysis; type: cell-based; conditions: dose 0.25-1 µg/ml
[5] = Anticancer activity against human nasopharyngeal carcinoma cells measured upto 72 hrs by MTT assay; type: functional; conditions: Nasopharyngeal carcinoma cell line
LX-2 [6] = experiment: Anti-fibrotic activity against human LX2 cells assessed as reduction in TGF-1beta-induced collagen mRNA expression at 0.25 to 1 ug/ml by qPCR analysis; type: functional, cell-based; conditions: dose 0.25-1 µg/ml

With `C/C=C(/C)C(=O)O[C@H]1[C@@H]2[C@H](C)C(=O)O[C@@H]2C[C@@H](C)[C@@H]2C=CC(=O)[C@]21C` [BREVILIN A] the inhibition [1] was “Active”, the Activity (LX-2 [2]) was “Active” and the EC50 (Influenza A virus) was 1.02 µg/mL (≈ 2.94 µM). For the same compound, the Activity (LX-2 [3]) was “Active”, the inhibition [4] was “Active” and the IC50 [5] was 3.46 µg/mL (≈ 9.99 µM). The Activity (LX-2 [6]) was “Active”.
